From US11807895B2, “High-throughput drug and genetic assays for cellular transformation” (THE BROAD INSTITUTE, INC., priority 2015, dated 2023)
Entries after “also recorded” stand apart in the source; their conditions may differ. Structures can show the parent of a compound that is named as a salt.

Columns and labels:
[1] = system: fibroblasts transformed with TERT, SV40 T-antigen, and H-RAS; assay: GILA (growth in low attachment) drug screen, ATP/CellTiter-Glo viability; format: cell-based, human; details: 633 kinase inhibitors and FDA-approved drugs screened at 30 μM or 10 μM, 5 days
Description: To identify drugs specifically inhibiting the oncogenic state of fibroblasts transformed with TERT, SV40 T-antigen, and H-RAS (Hahn W C, et al. (1999) Creation of human tumour cells with defined genetic elements. Nature 400:464-468.), GILA was used as a primary screen and growth on standard high-attachment plates as a counterscreen.
Transformed fibroblast cells were maintained as subconfluent monolayers, trypsinized, and seeded in 96-well plates (for analytical assays, FIG. 14) or in 384-well white plates (for screens, FIG. 3). The cell concentration was optimized to 1000 cells/well in 100 μl medium (for 96-well plate) or 50 cells/well in 30 μl growth medium (for 384-well plate). Two types of plates were used in the screens: high-attachment conditions (Corning, 3704) and Ultra Low-attachment (Sumitomo, PrimeSurface384U). Cells were seeded automatically using the liquid rapid dispenser Metrix WellMate (Thermo). Two small molecule libraries (NIH Clinical Collection 1-2013 and Kinase Inhibitor Focused Library) were transferred to each microplate, at 100 nl drug per well, to final concentration of 30 μM or 10 μM, respectively, by using the robotic transfer system (Seiko Epson) and pin array (V&P). Controls were added by multichannel pipette. After 5 days of incubation at 37° C. in 5% CO2, the cells were assayed for ATP content. […] The secondary screen was conducted similarly, except that an HP D300 Digital Liquid Dispenser and T8 dispenseheads (HP) was used to add 4 different concentrations of small molecules to the cells.
Crosstalk corrected values from EnVision reader were used to normalize the luminescence from each wells.

[2] = system: ascites-derived ovarian cancer cells from patients; assay: Ex-vivo GILA drug sensitivity of patient-derived cancer cells; format: cell-based, human; details: for inhibitory activity in ex-vivo GILA assay: 5 patients who failed multiple lines of treatment, 5000 cells per well, 72 hours; for dose dependence of viability in ex-vivo GILA: ovary cancer patient derived cells
Description: Patient-derived ovarian cancer cells are sensitive to FDA-approved drugs identified in the GILA-based screen. […] Immediately after procurement, ascites samples were processed and 5000 cells per well were flow-sorted into 96-well microtiter plates with low or high-attachment surfaces containing 100 μl of growth medium per well.
Cell viability was measured with the CellTiter-Glo (Promega) luminescent assay, using the EnVision Plate Reader (PerkinElmer) or the SpectraMax M5 Multi-Mode Microplate Reader (Molecular Devices). For high-attachment growth, tissue culture-treated 96-well clear plates (#3997, Corning) were used, while for the GILA assay low attachment surface plates (#3474, Corning) of 96-well clear plates were used for 3 to 5 days. Later the cells were moved to 96-Well Solid White Polystyrene Microplate (#3362, 14 Corning) for reading luminescence signal. To avoid bleeding of luminescence between the wells, every other well left empty in the solid white microplate. 30 μl of CTG reagent was used for 384-well microplates, and 100 μl for 96-well microplates. The cells were moderately shaken for 5 minutes in the reagent, followed by incubation for 20 minutes to ensure cell lysis. No background signal was detected from wells containing only culture medium.
Under an institutional review board approved protocol, freshly discarded ascites from patients with advanced stage ovarian cancers was collected from 5 individuals. Ascites fluid was immediately transferred on ice for further processing. Samples were spun down and red blood cells were removed with hypotonic lysis using ACK lysing buffer (Life Technologies). Cells were filtered through a 40 μm mesh and washed in PBS with 2% FBS and subjected to staining for FACS.
Cells were prepared per standard protocols, stained with Calcein-AM, CD45-FITC, EPCAM-PE and CD24-PE/Cy7 and incubated for 20 minutes on ice. Cells were washed with […] prior to flow-sorting. After doublet discrimination and compensation for spectral overlap, single, viable cells, negative for CD45 and positive for EPCAM and CD24 were flow-sorted into wells (96 well plates) prepared with growth 15 medium. Samples were sorted on a BD FACSAria SORP and analyzed using BD FACSDiva Software (BD Biosciences).

IL-6 = details: Hong et al. 2012: LPS-stimulated mouse macrophages and TG-injected mice; cited from earlier work
[3] = listed as Azelastine hydrochloride, hydrochloride

For CN1CCCC(n2nc(Cc3ccc(Cl)cc3)c3ccccc3c2=O)CC1 (stereo not drawn) [azelastine hydrochloride], which “hit in GILA-based drug screen (inhibits growth in low attachment, less pronounced effect on high attachment)” value [1] is on record?
The value was “identified and validated in the drug screen”.

And the “inhibitory activity in ex-vivo GILA assay” value [2, 3]?
The value was “highly effective at inhibiting growth”.

What about the “inhibitory activity in ex-vivo GILA assay” value ([2]; listed as azelastine, hydrochloride) of the same compound?
Its value is “demonstrated inhibitory activity”.

And the “dose dependence of viability in ex-vivo GILA” value ([2]; hydrochloride)?
Its value is “dose dependent response”.

What about the “dose dependence of viability in ex-vivo GILA” value [2, 3] of the same compound?
The value was “concentration-dependent viability”.

For COc1ccc(-c2cc(=O)c3c(OC)c(OC)c(OC)c(OC)c3o2)cc1OC [nobiletin], which “hit in GILA-based drug screen (inhibits growth in low attachment, less pronounced effect on high attachment)” value [1] is on record?
The value was “identified and validated in the drug screen”.

With C=C1/C(=C\C=C2/CCC[C@]3(C)[C@@H]([C@H](C)/C=C/[C@@H](O)C4CC4)CC[C@@H]23)C[C@@H](O)C[C@@H]1O [calcipotriol] as the compound, how does the “hit in GILA-based drug screen (inhibits growth in low attachment, less pronounced effect on high attachment)” value [1] read?
Its value is “top hits”.

With Cc1cccc(-c2[nH]ncc2-c2ccc3ncccc3n2)n1 [RepSox] as the compound, how does the “hit in GILA-based drug screen (inhibits growth in low attachment, less pronounced effect on high attachment)” value [1] read?
The value was “identified and validated in the drug screen”.

Which results are given for CC(=O)Oc1ccccc1C(=O)Nc1ncc([N+](=O)[O-])s1 [nitazoxanide]?
hit in GILA-based drug screen (inhibits growth in low attachment, less pronounced effect on high attachment) [1]: top hits; also recorded: identified and validated in the drug screen; inhibitory activity in ex-vivo GILA assay [2]: demonstrated inhibitory activity; IL-6 suppression (IL-6): suppresses IL-6

Which “hit in GILA-based drug screen (inhibits growth in low attachment, less pronounced effect on high attachment)” value [1] does the source give for CC(C)CC(N(C)C)C1(c2ccc(Cl)cc2)CCC1 (stereo not drawn) [sibutramine] here?
Its value is “top hits”.
